“Also recorded” adds a separate entry of the source.
How the values were obtained:
HCT-116 = experiment: MTT proliferation assay, colon cancer; type: cell-based; settings: Homo sapiens
Description: (§1) The antiproliferative activity was assessed by MTT proliferation assay (Table III) The anticancer activity was also investigated in a rare and lethal cancer (i.e. anaplastic thyroid cancer) by the use of three ATC-derived cell lines (Sw, FRO, 8505c). Again, the IC50 value after 72 h exposure was in the range of 10 to 50 nM. The same trend was also observed in four melanoma cell lines A2058, M14 (genotype BRAFV600E), SKMEL 197 e MEWO (genotype BRAF wild-type).
(§2) Table III IC50 expressed in μM and Emax (at 30 μM) for FC86 after 72 h exposure, were calculated by MTT assay

MEWO = experiment: Antiproliferative activity, melanoma cell line; type: cell-based; settings: Homo sapiens; melanoma MEWO (BRAF wild-type); read-out: IC50 (95% confidence interval)
Description: as §1

A2058 = experiment: Antiproliferative activity, melanoma cell line; type: cell-based; settings: Homo sapiens; melanoma A2058 (BRAFV600E); read-out: IC50 (95% confidence interval)
Description: as §1

SKMEL 197 = experiment: Antiproliferative activity, melanoma cell line; type: cell-based; settings: melanoma SKMEL 197 (BRAF wild-type); read-out: IC50 (95% confidence interval)
Description: as §1

M14 = experiment: Antiproliferative activity, melanoma cell line; type: cell-based; settings: Homo sapiens; melanoma M14 (BRAFV600E); read-out: IC50 (95% confidence interval)
Description: as §1

SKNMC = experiment: MTT proliferation assay, Ewing sarcoma; type: cell-based; settings: Homo sapiens, SK-N-MC, 72 h exposure
Description: as §1, §2

TC-32 = experiment: MTT proliferation assay, Ewing sarcoma; type: cell-based; settings: Homo sapiens
Description: as §1, §2

6647 = experiment: MTT proliferation assay, Ewing sarcoma; type: cell-based
Description: as §1, §2

TC-71 = experiment: MTT proliferation assay, Ewing sarcoma; type: cell-based
Description: as §1, §2

A673 = experiment: MTT proliferation assay, Ewing sarcoma; type: cell-based; settings: Homo sapiens
Description: as §1, §2

[1] = test system: human lymphoma cell line TMD8; experiment: Lymphoma xenograft in Nod-Scid mice; type: in vivo; settings: 100 mg/kg oral gavage once daily, five times per week
Description: FIG. 6 reports ADME-TOX profiling of compounds FC91, FC85, and FC86 as explained in example 7 FIG. 7 reports the inhibition of the compound FC86 on tumor growth in xenograft models of lymphoma (TMD8 engrafted in NOD-Scid mice); vehicle group (blue line), n=9 mice; FC86 treated group (red line), n=9 mice (Example 8). Tumor volume expressed in cubic mm plus SEM (Student t-test); p<0.01.
To this purpose, the compound was administered by oral gavage to Nod-Scid mice engrafted with the human lymphoma cell line TMD8 (15 millions of cells in 100 uL PBS/mouse). […] Body conditions were not affected by the treatments.

[2] = test system: healthy human thyroid cells; experiment: Toxicity in healthy human thyroid cells (trypan blue staining); type: cell-based; settings: 72 h
Description: FRTL5 were assayed with MTT, while healthy human thyroid cells by trypan blue staining. The percentage of dead cells, as counted after trypan blue staining, was around 10-15% at the dose of 800 nM of FC86.
To assess the toxicity FC86 was evaluated against a primary healthy human thyroid cell line at concentrations ranging from 3 nM to 800 nM for 72 h (FIG. 3). Data collected reveal that FC86 is not toxic for healthy human thyroid cells at concentration […] 400 nM. Such a concentration is 20× fold higher than IC50 detected in tumour cell lines.

[3] = test system: peripheral blood mononuclear cells (PBMC); experiment: Annexin V apoptosis in PBMC from healthy donors (FACS); type: cell-based; settings: 200 nM, 48 h
Description: FC86 was incubated with cells at the concentration of 200 nM for 48 h. Annexin V was detected by flow cytometry (FACS). PBMCs (Peripheral blood mononuclear cells) were not affected by FC86.

SMILES: Cc1ccc(S(=O)(=O)Nc2ccc3c(c2)/C(=C/c2cccs2)C(=O)N3)cc1 [FC86, N-[(3Z)-2-oxo-3-(thiophene-2-ylmethylidene)-2,3-dihydro-1H-indol-5-yl]-4-methylbenzenesulfonamide]
- Emax at 30 µM (HCT-116; Colon HCT-116, 30 μM, 72 h): 62%
- IC50 (HCT-116; Colon HCT-116, 72 h exposure): 1600 nM
- IC50 (MEWO): 57 nM
- IC50 (A2058): 28.6 nM
- IC50 (SKMEL 197): 20.7 nM
- IC50 (M14): 14.1 nM
- IC50 (SKNMC): > 30000 nM
- Emax at 30 µM (TC-32; Ewing Sarcoma TC-32, 30 μM, 72 h): 75%
- IC50 (TC-32; Ewing Sarcoma TC-32, 72 h exposure): 30 nM
- Emax at 30 µM (6647; Ewing Sarcoma 6647, 30 μM, 72 h): 75%
- IC50 (6647; Ewing Sarcoma 6647, 72 h exposure): 90 nM
- Emax at 30 µM (TC-71; Ewing Sarcoma TC-71, 30 μM, 72 h): 95%
- IC50 (TC-71; Ewing Sarcoma TC-71, 72 h exposure): 800 nM
- Emax at 30 µM (A673; Ewing Sarcoma A673, 30 μM, 72 h): 85%
- IC50 (A673; Ewing Sarcoma A673, 72 h exposure): 3200 nM
- body conditions [1]: not affected
- tumor size vs vehicle at the end of the study [1]: two times smaller
- tumor growth inhibition ([1]; p<0.01): significantly inhibit tumor growth
- toxicity for healthy human thyroid cells ([2]; at concentration higher than 400 nM): not toxic
- percentage of dead cells (trypan blue staining) ([2]; healthy human thyroid cells, 800 nM): 10-15%
- apoptosis (Annexin V) in PBMC [3]: did not detect any sign of apoptosis; also recorded: not affected

— patent US20240350458A1, “14-3-3 PROTEIN MODULATORS AS ANTITUMOR AGENTS” (priority 2021, published 2024)
